# From US8048880B2, “Treatment of cardiovascular disease and dyslipidemia using secretory phospholipase A2 (SPLA2) inhibitors and SPLA2 inhibitor combination therapies” (Anthera Pharmaceuticals, Inc., priority 2007, dated 2011)
# Tests used:
# ApoE−/− mice [1] = assay: Plasma total cholesterol levels in ApoE−/− mice on high fat diet (Example 1); type: in vivo; conditions: at 16 weeks
# Experimental: (§1) Male ApoE^−/− mice were fed a high fat diet (21% fat, 0.15% cholesterol, 19.5% casein) ad libitum for two weeks in order to acclimate to the diet. Plasma cholesterol levels and body weight were measured in order to obtain baseline levels, and mice were randomized into three groups of 20 mice based on these measurements. After the acclimation period, mice remained on the high fat diet and were administered A-002 (30 mg/kg or 90 mg/kg) or vehicle only (5% acacia) twice a day for 16 weeks by oral gavage.
# Plasma cholesterol levels and body weight were measured at 4, 8, 12, and 16 weeks after the start of A-002 administration. Comparisons of measurements between test and control mice at each time period were performed using a two-way analysis of variance test (ANOVA) for repeated measures, followed by post-hoc Bonferroni test for significance.
# ApoE−/− mice [2] = assay: Atherosclerotic plaque coverage of the aorta in ApoE−/− mice (Example 1); type: in vivo; conditions: at 16 weeks
# Experimental: as §1
# At the end of the 16th week, mice were sacrificed and plasma samples, heart tissue, and aortas from the heart to approximately 3 mm distal to the iliac bifurcation were collected. Aortas were placed on microscope slides and stained with Oil Red O for scanning and image analysis of atherosclerotic lesion size. Vessel images were captured using a Microtek Scanmaker 9600XL scanner (Microtek, Carson, Calif.) and Photoshop 6.0 software (Adobe Systems Inc., San Jose, Calif.). Atherosclerotic plaque coverage was quantified for the entire length of the vessel including the arch using Image-Pro Plus software. Vessels were also analyzed for plaque coverage in the descending abdominal aorta, starting in the region of the first intercostal branches to the iliac bifurcation (not including the arch). Plaque content was expressed as a percent of the aortic surface. […]
# ApoE−/− mice [3] = assay: Angiotensin II-mediated atherosclerotic plaque formation and aneurysm in ApoE−/− mice (Example 2); type: in vivo
# Experimental: A mouse model of accelerated atherosclerosis was utilized to determine the effect of A-002 administration on atherosclerosis and aneurysm formation. ApoE^−/− mice acclimated to the same high fat diet utilized in Example 1 were administered angiotensin II with water, angiotensin with 5% acacia, or saline infusion and water twice daily for four weeks. […] At the end of the test period, plaque coverage was assessed by three independent reviewers, and their assessments were averaged to determine plaque coverage.
# ApoE−/− mice [4] = assay: En face lesion size in ApoE−/− mice on high fat diet, A-002 and/or statin (Example 3); type: in vivo; conditions: alone or plus 0.02 g/kg pravastatin, 12 weeks
# Experimental: (§2) Body weight, plasma total cholesterol, and plasma HDL levels were measured for six groups of twelve ApoE^−/− mice. The mice were then placed on a high fat diet for twelve weeks to allow for formation of significant fatty atherosclerotic plaques. The high fat diet was a modified version of the Western diet (TD.88137, Harlan Teklad, Madison, Wis.) consisting of casein (195 g/kg), DL-methionine (3 g/kg), sucrose (341.44 g/kg), corn starch (150 g/kg), anhydrous milkfat (210 g/kg), cholesterol (1.5 g/kg), cellulose (50 g/kg), mineral mix AlN-76 (Teklad; 35 g/kg), calcium carbonate (4 g/kg), vitamin mix (Teklad #40060; 10 g/kg), ethyoxyquin (antioxidant, 0.04 g/kg), and either 0.0156 g/kg (“low dose”) A-002 (Group A), 1.56 g/kg (“high dose”) A-002 (Group B), 0.02 g/kg pravastatin (Group C), low dose A-002 plus 0.02 g/kg pravastatin (Group D), high dose A-002 plus 0.02 g/kg pravastatin (Group E), or vehicle only (Group F). Mice were administered diets A-F in a blinded manner, and food was provided ad libitum. The diet was initially prepared based on the assumption that each mouse weighed 22.5 g and ate 4.5 g/day. Based on body weight and food consumption, the diet was modified over the 12 week course of treatment to adjust for a body weight of 26 g and a food intake of 2.5 g/day. The dosages of A-002 were selected to cover a range of 100-fold based on pharmacokinetics in ApoE^−/− mice as well as toxicology and previously observed efficacy in this model.
# After twelve weeks, mice were sacrificed and plasma, heart tissue, and aortic tissue were collected. En face lesion size was determined via digital imaging analysis. Plaque content (as measured as en face lesion) was reduced in mice administered A-002 alone, statin alone, or A-002 in combination with statin. The reduction in plaque content in mice administered A-002 plus statin was substantially greater than the reduction in mice administered either compound alone (Table 2, compare Group D vs. Groups A and C; Group E vs. Groups B and C). Further, the reduction in plaque content in mice administered A-002 plus statin was substantially greater than the sum of the reduction in plaque content in mice administered A-002 alone and mice administered statin alone.
# ApoE−/− mice [5] = assay: Plasma total cholesterol and HDL levels in ApoE−/− mice, A-002 and/or statin (Example 3); type: in vivo; conditions: alone or plus 0.02 g/kg pravastatin, 12 weeks
# Experimental: as §2
# Plasma total cholesterol and HDL levels were measured. Mean levels of total cholesterol were decreased in mice administered A-002 alone or in combination with statin (Table 3, FIG. 6). […] Mean levels of HDL were increased in mice administered A-002 at either dosage (Table 4). This increase was greater in mice administered high dose A-002 plus statin than in mice administered high dose A-002 or statin alone (Table 4 compare Group E vs. Groups B and C; FIG. 7).
# CRP = assay: Serum CRP concentration in humans, A-002 twice a day (Example 4); type: in vivo, human; conditions: week 8
# Experimental: (§3) 204 human subjects from the United States with CVD, specifically stable coronary artery disease, were randomized to receive placebo or A-002 via oral administration twice a day over an eight week administration period at dosages of 50 mg, 100 mg, 250 mg, or 500 mg. Levels of various lipids and inflammatory markers were measured at the outset of the trial and at the end of weeks four and/or eight. For data sets with a normal distribution, mean levels of lipids or inflammatory markers were analyzed. For data sets with non-normal distribution, median levels were analyzed. […] In addition, administration of A-002 decreased median levels of CRP (Table 11).
# (§4) Serum TG, CRP, and IL-6 levels were measured at eight weeks in 86 subjects from the ITT population diagnosed with metabolic syndrome.
# IL-6 = assay: Serum IL-6 concentration in humans with metabolic syndrome, A-002 twice a day (Example 4); type: in vivo, human; conditions: metabolic syndrome subpopulation, week 8
# Experimental: as §3, §4
# [6] = high dose A-002 (1.56 g/kg diet)
# [7] = low dose A-002 (0.0156 g/kg diet)
# [8] = metabolic syndrome subpopulation
compound,measurement,setting,value
"CCc1c(C(=O)C(N)=O)c2c(OCC(=O)OC)cccc2n1Cc1ccccc1 [A-002, [[3-(2-Amino-1,2-dioxoethyl)-2-ethyl-1-(phenylmethyl)-1H-indol-4-yl]oxy]acetic acid methyl ester]",change from baseline in total cholesterol,ApoE−/− mice [1]; 30 mg/kg A-002 twice a day,−10%
same,change from baseline in total cholesterol,ApoE−/− mice [1]; 90 mg/kg A-002 twice a day,−12%
same,plaque coverage in aortic tissue,ApoE−/− mice [2]; 30 mg/kg A-002 twice a day,6.3%
same,plaque coverage in aortic tissue,ApoE−/− mice [2]; 90 mg/kg A-002 twice a day,6.8%
same,Aneurysm rate (%),"ApoE−/− mice [3]; angiotensin II + 5% acacia + 30 mg/kg A-002 twice daily, four weeks",0% (0/16)
same,plaque content,"ApoE−/− mice [3]; angiotensin II/acacia mice, 30 mg/kg A-002 twice daily, four weeks (FIG. 4)",significantly decreased
same,Change in mean % en face lesion vs. control,ApoE−/− mice [4]; [6],−4.158%
same,Mean % en face lesion,ApoE−/− mice [4]; [6],1.469%
same,Change in mean % en face lesion vs. control,ApoE−/− mice [4]; [7],−2.241%
same,Mean % en face lesion,ApoE−/− mice [4]; [7],3.386%
same,Mean HDL concentration,ApoE−/− mice [5]; [6],17.167 mg/dL
same,Mean total cholesterol concentration,ApoE−/− mice [5]; [6],1301.750 mg/dL
same,Mean HDL concentration,ApoE−/− mice [5]; [7],21.000 mg/dL
same,Mean total cholesterol concentration,ApoE−/− mice [5]; [7],1355.545 mg/dL
same,% change vs. baseline (median [CRP]),CRP; [8],−12.50%
same,Change in median [CRP] vs. baseline,CRP; [8],-0.3 mg/L
same,% change vs. baseline (median [CRP]),"CRP; serum, ITT population",−13.33%
same,Change in median [CRP] vs. baseline,"CRP; serum, ITT population",-0.20 mg/L
same,% change vs. baseline (mean [IL-6]),IL-6,−4.29%
same,Change in mean [IL-6] vs. baseline,IL-6,-0.24 pg/mL
